Results reported in publication PMC4459817, “Vasculotide reduces endothelial permeability and tumor cell extravasation in the absence of binding to or agonistic activation of Tie2” (EMBO Molecular Medicine, 2015).

System: residual and metastatic LM2-4luc disease after resection
Assay: orthotopic LM2-4luc xenografts with surgical resection of primary tumor (adjuvant setting)
Assay type: in vivo, human LM2-4luc cells in CB-17 SCID mice
Excerpt: A second orthotopic implantation experiment involved surgical resection of primary LM2-4^luc tumors (∽400 mm^3) at 17DPI (Fig6) to model post-operative metastases arising from minimal residual disease (MRD). MRD includes the regrowth of incompletely resected mammary tumors, as well as circulating or disseminated tumor cells released from primary tumors prior to or at the time of surgical resection. VT was initiated 6 days prior to surgery and maintained chronically, while adjuvant SU (1-week or 3-week 60 mg/kg/day) treatments were initiated 1 day post-surgery (Fig6A).
In vivo experiments were performed in strict accordance with protocols approved by the Sunnybrook Research Institute Animal Care Committee, accredited by the Canadian Council of Animal Care. All surgical, imaging, and euthanasia procedures were performed under inhaled isoflurane anesthesia. Experimental metastasis models involved injections of 10^6 tumor cells, suspended in 200 μl serum-free DMEM, into the mouse tail vein. LM2-4^luc implantations were performed on 6 to 8-week-old female CB-17 SCID mice (Charles River Canada). HT29^luc implantations were performed on 19- to 20-week-old male and 11- to 12-week-old female YFP-SCID mice (bred in-house). SN12^luc implantations were performed on 9-week-old male YFP-SCID mice. Spontaneous metastasis models involved orthotopic implantations of 2 × 10^6 LM2-4^luc cells/50 μl serum-free DMEM in the right inguinal mammary fat pads of 6-week-old female CB-17 SCID mice.
Sunitinib malate (SU), from Pfizer or LC Laboratories, and its vehicle were formulated as described before (Ebos et al, [2009]). SU was administered by oral gavage (PO), once daily, at a dose of 60 mg/kg mouse weight. Vasculotide (VT): VT synthesized at the Sunnybrook Research Institute (Toronto, ON, Canada) was used in experiments described in Fig2(A–D) and Supplementary Fig S5(A and B). VT synthesized by American Peptide (Sunnyvale, CA, USA) was used in experiments described in Fig5. VT synthesized by Bachem UK Ltd was used in experiments described in Figs1, 2(E–H), 3, 4, 6–9, Supplementary Figs S2, and S5(C and D). Lyophilized product was reconstituted in PBS to 500 μg/500 μl stock aliquots and stored at −80°C. As needed, stock aliquots were diluted with PBS to a 250 ng/50 μl working concentration and stored in 0.4–1 ml aliquots at −80°C. VT (at a standard dose of 250 ng/mouse) or its vehicle (PBS) was administered to mice by intraperitoneal (IP) injections every other day.
5. Bioluminescence imaging (BI) of tumor burden
For in vivo BI: Mice were injected intraperitoneally with 150mg/kg luciferin (Promega) 10 minutes prior to and anesthetized with isofluorane just before luminescent pseudocolor imaging (uniform settings: CCD camera locked at -105 °C, exposure=60s, f/1, subject size=1.5cm, bin=8, FOV=23.2cm, full image correction) using the IVIS 200 Imaging System (Caliper/PerkinElmer). Using the Living Image software (v2.50.1, Xenogen), weekly images were analyzed under uniform color range on grayscale photographic overlay. Total fluxes (photons/sec) were quantified within consistent regions of interest and statistically compared ideally at a timepoint before any deaths have occurred.
For ex vivo BI: Mice were sacrificed at 7 mins after luciferin injections, then organs of interest were dissected and individually placed within 24-well plates for imaging at 10 min post-luciferin injection.
6. Immunohistochemical (IHC) analysis of lung metastases […]

Compound	thoracic metastases benefit (10 days after discontinuation of 1-week SU, Fig6C)	abdominal tumor growth vs. thoracic metastatic dissemination (adjuvant SU, Fig6C, D)	tumor bioluminescence, VT combined with 1-wk SU (Fig6C and D)	survival advantage (VT monotherapy, Plog-rank = 0.42, Fig6A)	thoracic metastatic dissemination vs. abdominal tumor growth (thoracic P = 0.04, abdominal P > 0.05 for VT, Fig6C, D)
CCN(CC)CCNC(=O)c1c(C)[nH]c(/C=C2\C(=O)Nc3ccc(F)cc32)c1C [sunitinib, reference compound]	no benefit was observed with respect to thoracic metastases	more effective at inhibiting abdominal tumor growth (Fig6D) than thoracic metastatic dissemination			
CHHHRHSF [Vasculotide, 4-armed maleimide-functionalized polyethylene glycol (PEG) backbone to link together four cysteine-capped T7 peptides, that is, CHHHRHSF]			lowered tumor bioluminescence to a similar extent as 3-wk SU monotherapy	not statistically significant	more effective at inhibiting thoracic metastatic dissemination (Fig6C, P = 0.04) than abdominal tumor growth (Fig6D, P > 0.05)
